Counter-ions that a name gives are not always drawn.
molecular target: T1, recombinant human mPGES-1 (Homo sapiens, UniProt O14684); test: mPGES-1 inhibition, HTRF detection of PGE2; format: biochemical
T1 construct: made in house; host or cells: Rosetta E. coli (microsomal/membrane fraction)
T1 sequence (O14684 1-152): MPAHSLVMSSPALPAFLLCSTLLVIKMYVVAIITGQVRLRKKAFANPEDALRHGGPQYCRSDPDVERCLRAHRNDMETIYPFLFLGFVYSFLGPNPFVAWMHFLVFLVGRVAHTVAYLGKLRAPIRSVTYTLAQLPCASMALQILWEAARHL
Outline: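 Bacterial microsomes with GSH-containing phosphate buffer at pH 7.4 are exposed to test compounds for 25 minutes before a one-minute PGH2 conversion. The quenched, 750-fold diluted mixture is analysed by time-resolved FRET for PGE2.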

| SMILES | inhibition at 10 µM [%] | inhibition at 1 µM [%] |
| --- | --- | --- |
| Cn1c(Nc2c(Cl)cccc2Cl)nc2cc(C(=O)N[C@H]3CC[C@H](C)CC3)cnc21 [Example 453, 2-(2,6-Dichlorophenylamino)-3-methyl-N-((1r,4r)-4-methylcyclohexyl)-3H-imidazo[4,5-b]pyridine-6-carboxamide] | 98 | – |
| COCCOc1nc2[nH]c(Nc3c(Cl)cncc3Cl)nc2cc1C(=O)Nc1cc(C(F)(F)F)ccn1 [Example 808, 2-(3,5-Dichloro-pyridin-4-ylamino)-5-(2-methoxy-ethoxy)-N-(4-trifluoromethyl-pyridin-2-yl)-3H-imidazo[4,5-b]pyridine-6-carboxamide] | 100 | – |
| Cn1c(Nc2c(Cl)cccc2Cl)nc2cc(C(=O)NCc3ccccc3C(F)(F)F)cnc21 [Example 468, 2-(2,6-Dichlorophenylamino)-3-methyl-N-(2-trifluoromethyl-benzyl)-3H-imidazo[4,5-b]pyridine-6-carboxamide] | 98 | – |
| COc1nc2c(cc1C(=O)Nc1cc(C(F)(F)F)ccn1)nc(Nc1c(Cl)cccc1Cl)n2C [Example 386, 2-(2,6-Dichloro-phenylamino)-5-methoxy-3-methyl-N-(4-trifluoromethyl-pyridin-2-yl)-3H-imidazo[4,5-b]pyridine-6-carboxamide formate] | 99 | – |
| O=C(NCC(F)(F)C(F)(F)C(F)(F)C(F)(F)F)c1cc2nc(Nc3c(Cl)cncc3Cl)[nH]c2nc1OC1CCOC1 (stereo not shown) [Example 792, 2-(3,5-Dichloro-pyridin-4-ylamino)-5-(tetrahydrofuran-3-yl-oxy)-N-(2,2,3,3,4,4,5,5,5-nonafluoro-pentyl)-3H-imidazo[4,5-b]pyridine-6-carboxamide] | 96 | – |
| O=C(N[C@H]1CC[C@H](C(F)(F)F)CC1)c1cc2nc(Nc3c(Cl)cccc3C(F)(F)F)[nH]c2nc1OCC(F)F [Example 778, 2-(2-Chloro-6-trifluoromethyl-phenylamino)-5-(2,2-difluoro-ethoxy)-N-(trans-4-trifluoromethyl-cyclohexyl)-3H-imidazo[4,5-b]pyridine-6-carboxamide] | – | 98 |
| COCCOc1nc2c(cc1C(=O)N[C@H]1CC[C@H](C(F)(F)F)CC1)nc(Nc1c(Cl)cc(F)cc1Cl)n2C [Example 869, 2-(2,6-Dichloro-4-fluoro-phenylamino)-5-(2-methoxy-ethoxy)-N-(trans-4-trifluoromethyl-cyclohexyl)-3-methyl-3H-imidazo[4,5-b]pyridine-6-carboxamide] | 100 | – |
| O=C(NC1CCC2(CC1)CC2)c1cnc2[nH]c(Nc3c(Cl)cccc3Cl)nc2c1 [Example 485, 2-(2,6-Dichlorophenylamino)-N-(spiro[2.5]octan-6-yl)-3H-imidazo[4,5-b]pyridine-6-carboxamide] | 98 | – |
| O=C(NCc1ncccc1C(F)(F)F)c1cc2nc(Nc3c(Cl)cc(F)cc3Cl)[nH]c2nc1OCC(F)F [Example 826, 2-(2,6-Dichloro-4-fluoro-phenylamino)-5-(2,2-difluoro-ethoxy)-N-((3-trifluoromethyl-pyridin-2-yl)-methyl)-3H-imidazo[4,5-b]pyridine-6-carboxamide] | 100 | – |
| Cn1c(Nc2c(Cl)cncc2Cl)nc2cc(C(=O)NCc3ncccc3C(F)(F)F)c(OCCF)nc21 [Example 835, 2-(3,5-Dichloro-pyridin-4-ylamino)-5-(2-fluoro-ethoxy)-N-((3-trifluoromethyl-pyridin-2-yl)-methyl)-3-methyl-3H-imidazo[4,5-b]pyridine-6-carboxamide] | 95 | – |
| Cn1c(Nc2c(Cl)cc(F)cc2Cl)nc2cc(C(=O)Nc3cc(C(F)(F)F)ccn3)c(OCC(F)(F)F)nc21 [Example 815, 2-(2,6-Dichloro-4-fluoro-phenylamino)-5-(2,2,2-trifluoro-ethoxy)-N-(4-trifluoromethyl-pyridin-2-yl)-3-methyl-3H-imidazo[4,5-b]pyridine-6-carboxamide] | 100 | – |
| O=C(NCC(F)(F)C(F)(F)C(F)(F)C(F)(F)F)c1cc2nc(Nc3c(Cl)cncc3Cl)[nH]c2nc1OCC(F)F [Example 807, 2-(3,5-Dichloro-pyridin-4-ylamino)-5-(2,2-difluoro-ethoxy)-N-(2,2,3,3,4,4,5,5,5-nonafluoro-pentyl)-3H-imidazo[4,5-b]pyridine-6-carboxamide] | 90 | – |
| O=C(NCC(F)(F)C(F)(F)C(F)(F)C(F)(F)F)c1cc2nc(Nc3c(Cl)cc(F)cc3Cl)[nH]c2nc1OCC(F)F [Example 825, 2-(2,6-Dichloro-4-fluoro-phenylamino)-5-(2,2-difluoro-ethoxy)-N-(2,2,3,3,4,4,5,5,5-nonafluoropentyl)-3H-imidazo[4,5-b]pyridine-6-carboxamide] | 98 | – |
| CCCC(CCC)NC(=O)c1cnc2c(c1)nc(Nc1c(Cl)cccc1Cl)n2C [Example 473, 2-(2,6-Dichlorophenylamino)-N-(hept-4-yl)-3-methyl-3H-imidazo[4,5-b]pyridine-6-carboxamide] | 99 | – |
| O=C(N[C@H]1CC[C@H](C(F)(F)F)CC1)c1cc2nc(Nc3c(F)cccc3C(F)(F)F)[nH]c2nc1OCC(F)F [Example 781, 2-(2-Fluoro-6-trifluoromethyl-phenylamino)-5-(2,2-difluoro-ethoxy)-N-(trans-4-trifluoromethyl-cyclohexyl)-3H-imidazo[4,5-b]pyridine-6-carboxamide] | – | 99 |
| Cn1c(Nc2c(Cl)cncc2Cl)nc2cc(C(=O)NCc3ncccc3C(F)(F)F)c(OCC(F)F)nc21 [Example 841, 2-(3,5-Dichloro-pyridin-4-ylamino)-5-(2,2-difluoro-ethoxy)-N-((3-trifluoromethyl-pyridin-2-yl)-methyl)-3-methyl-3H-imidazo[4,5-b]pyridine-6-carboxamide] | 99 | – |
| Cn1c(Nc2c(Cl)cncc2Cl)nc2cc(C(=O)Nc3ccc(Br)cc3)c(OCCF)nc21 [Example 832, 2-(3,5-Dichloro-pyridin-4-ylamino)-5-(2-fluoro-ethoxy)-N-(4-bromo-phenyl)-3-methyl-3H-imidazo[4,5-b]pyridine-6-carboxamide] | 100 | – |
| O=C(NCc1ncccc1C(F)(F)F)c1cc2nc(Nc3c(Cl)cncc3Cl)[nH]c2nc1OCC(F)(F)F [Example 855, 2-(3,5-Dichloro-pyridin-4-ylamino)-5-(2,2,2-trifluoro-ethoxy)-N-((3-trifluoromethyl-pyridin-2-yl)-methyl)-3H-imidazo[4,5-b]pyridine-6-carboxamide] | 100 | – |
| O=C(N[C@H]1CC[C@H](C(F)(F)F)CC1)c1cc2nc(Nc3ccccc3C(F)(F)F)[nH]c2nc1OCC(F)F [Example 784, 2-(2-Trifluoromethyl-phenylamino)-5-(2,2-difluoro-ethoxy)-N-(trans-4-trifluoromethyl-cyclohexyl)-3H-imidazo[4,5-b]pyridine-6-carboxamide] | 97 | – |
| COCCOc1nc2[nH]c(Nc3c(Cl)cc(F)cc3Cl)nc2cc1C(=O)N[C@H]1CC[C@H](C(F)(F)F)CC1 [Example 867, 2-(2,6-Dichloro-4-fluoro-phenylamino)-5-(2-methoxy-ethoxy)-N-(trans-4-trifluoromethyl-cyclohexyl)-3H-imidazo[4,5-b]pyridine-6-carboxamide] | 100 | – |
| Cn1c(Nc2c(Cl)cncc2Cl)nc2cc(C(=O)Nc3cc(C(F)(F)F)ccn3)c(OCCF)nc21 [Example 831, 2-(3,5-Dichloro-pyridin-4-ylamino)-5-(2-fluoro-ethoxy)-N-(4-trifluoromethyl-pyridin-2-yl)-3-methyl-3H-imidazo[4,5-b]pyridine-6-carboxamide] | 100 | – |
| CCCCC[C@@H](C)NC(=O)c1cnc2c(c1)nc(Nc1c(Cl)cccc1Cl)n2C [Example 449, (R)-2-(2,6-Dichlorophenylamino)-N-(hept-2-yl)-3-methyl-3H-imidazo[4,5-b]pyridine-6-carboxamide] | 98 | – |
| Cc1ccnc(Br)c1Nc1nc2cc(C(=O)N[C@H]3CC[C@H](C(F)(F)F)CC3)c(OCC(F)F)nc2n1C [Example 786, 2-(2-Bromo-4-methyl-pyridin-3-ylamino)-5-(2,2-difluoro-ethoxy)-N-(trans-4-trifluoromethyl-cyclohexyl)-3-methyl-3H-imidazo[4,5-b]pyridine-6-carboxamide] | 92 | – |
| Cn1c(Nc2c(Cl)cc(F)cc2Cl)nc2cc(C(=O)Nc3ccc(Br)cc3)c(OCC(F)(F)F)nc21 [Example 816, 2-(2,6-Dichloro-4-fluoro-phenylamino)-5-(2,2,2-trifluoro-ethoxy)-N-(4-bromo-phenyl)-3-methyl-3H-imidazo[4,5-b]pyridine-6-carboxamide] | 97 | – |
| Cn1c(Nc2c(F)cccc2Cl)nc2cc(C(=O)Nc3ccc(Br)cc3)cnc21 [Example 480, N-(4-Bromophenyl)-2-(2-chloro-6-fluorophenylamino)-3-methyl-3H-imidazo[4,5-b]pyridine-6-carboxamide] | 100 | – |
| O=C(Nc1ccc(Br)cc1)c1cc2nc(Nc3c(Cl)cncc3Cl)[nH]c2nc1OCC(F)(F)F [Example 858, 2-(3,5-Dichloro-pyridin-4-ylamino)-5-(2,2,2-trifluoro-ethoxy)-N-(4-bromo-phenyl)-3H-imidazo[4,5-b]pyridine-6-carboxamide] | 100 | – |
| O=C(Nc1ccc(Br)cc1)c1cc2nc(Nc3c(Cl)cncc3Cl)[nH]c2nc1OCC(F)F [Example 804, 2-(3,5-Dichloro-pyridin-4-ylamino)-5-(2,2-difluoro-ethoxy)-N-(4-bromo-phenyl)-3H-imidazo[4,5-b]pyridine-6-carboxamide] | 98 | – |
| O=C(N[C@H]1CC[C@H](C(F)(F)F)CC1)c1cc2nc(Nc3c(Cl)ccc(Cl)c3F)[nH]c2nc1OCC(F)F [Example 796, 2-(3,6-Dichloro-2-fluoro-phenylamino)-5-(2,2-difluoro-ethoxy)-N-(trans-4-trifluoromethyl-cyclohexyl)-3H-imidazo[4,5-b]pyridine-6-carboxamide] | 96 | – |

Source: patent US8703796B2, “3H-imidazo [4, 5-B] pyridine-6-carboxamides as anti-inflammatory agents” (Boehringer Ingelheim International GmbH, priority 2008, dated 2014)
